Laboratory results reported in ChEMBL document CHEMBL5338828, “Structure-Activity Relationships of Bis-Intercalating Peptides and Their Application as Antibody-Drug Conjugate Payloads” (J Med Chem, 2023).
The source made the active and inactive calls. The calls are words filed in the database; no cut-off is given here. Where a SMILES comes first, the peptide text is derived from it. Bridges are numbered along the chain shown (N, C = ends). Roman numbers before positions name the chains, in order. [ ]: non-standard residue; d: D form. The star is where a group is joined. Quinaldoyl(3-OH) = O=C(c1nc2ccccc2cc1O)*; NMeV = CN[C@H](C(=O)O)C(C)C; Pip = O=C(O)[C@@H]1CCCCN1; dDap = NC[C@@H](N)C(=O)O

Legend:
[1] = system: Clupeidae; experiment: Binding affinity to Herring sperm DNA assessed as melting temperature by differential scanning calorimetric analysis
[2] = Retention time of the compound by HPLC analysis; type: physicochemical
[3] = Binding affinity to biotinylated hairpin DNA (unknown origin) assessed as binding constant by SPR analysis
[4] = Binding affinity to biotinylated hairpin DNA (unknown origin) at 0.312 to 5 uM by SPR analysis; conditions: dose 0.312-5 µM
[5] = Stability in mouse plasma assessed as parent compound remaining measured after 24 hrs by LC-MS analysis; type: ADME, cell-free; conditions: read-out: Stability
[6] = Stability in mouse plasma assessed as half-life at 1 uM measured upto 1440 min by UHPLC-MS/MS analysis; type: ADME, cell-free
[7] = system: EBC-1; experiment: Cytotoxicity against human EBC-1 cells assessed as inhibition of cell growth incubated for 5 days by CellTiter-Glo luminescence assay; type: functional, cell-based; conditions: EBC-1, 120 h
[8] = system: OVCAR-3; experiment: Cytotoxicity against human OVCAR-3 cells assessed as inhibition of cell growth incubated for 5 days by CellTiter-Glo luminescence assay; type: functional, cell-based; conditions: OVCAR-3, 120 h
[9] = system: IGROV-1; experiment: Cytotoxicity against human IGROV-1 cells assessed as inhibition of cell growth incubated for 5 days by CellTiter-Glo luminescence assay; type: functional, cell-based; conditions: IGROV-1, 120 h
[10] = Stability in mouse plasma at 1 uM measured upto 1440 min by UHPLC-MS/MS analysis; type: ADME, cell-free; conditions: 24 h

Row | Structure (SMILES) | Tm [1] [°C] | Retention_time [2] [min] | Kd [3] [nM] | also measured
1 | CC[C@H](C)[C@H]1C(=O)N[C@H](C)[C@@H](NC(=O)c2nc3ccccc3cc2O)C(=O)N2CCCC[C@H]2C(=O)NCC(=O)N(C)CC(=O)N(C)[C@@H]([C@@H](C)CC)C(=O)N[C@H](C)[C@@H](NC(=O)c2nc3ccccc3cc2O)C(=O)N2CCCC[C@H]2C(=O)NCC(=O)N(C)CC(=O)N1C | 85 | 20.9 |  | 
2 | CC(C)[C@H]1C(=O)N(C)C[C@@H](NC(=O)c2nc3ccccc3cc2O)C(=O)N2CCCC[C@H]2C(=O)NCC(=O)N(C)CC(=O)N(C)[C@@H](C(C)C)C(=O)N(C)C[C@@H](NC(=O)c2nc3ccccc3cc2O)C(=O)N2CCCC[C@H]2C(=O)NCC(=O)N(C)CC(=O)N1C | 88 | 17.7 |  | 
3 | CN1CC(=O)N2CCCC[C@H]2COC[C@@H](NC(=O)c2nc3ccccc3cc2O)C(=O)N2CCCC[C@H]2C(=O)NCC(=O)N(C)CC(=O)N2CCCC[C@H]2C(=O)NC[C@@H](NC(=O)c2nc3ccccc3cc2O)C(=O)N2CCCC[C@H]2C(=O)NCC1=O | 94 | 16.6 | 950 | 
4 | CC(C)[C@H]1C(=O)NCC(=O)N(C)CC(=O)N2CCCC[C@H]2C(=O)NC[C@@H](NC(=O)c2nc3ccccc3cc2O)C(=O)N(C)[C@@H](C(C)C)C(=O)NCC(=O)N(C)CC(=O)N2CCCC[C@H]2C(=O)NC[C@@H](NC(=O)c2nc3ccccc3cc2O)C(=O)N1C |  | 16.8 |  | Activity [4]: inactive
5 | CC(C)[C@H]1C(=O)NC[C@@H](NC(=O)c2nc3ccccc3cc2O)C(=O)N2CCCC[C@H]2C(=O)NCC(=O)N(C)CC(=O)N(C)[C@@H]([C@H](C)OC(C)(C)C)C(=O)NC[C@@H](NC(=O)c2nc3ccccc3cc2O)C(=O)N2CCCC[C@H]2C(=O)NCC(=O)N(C)CC(=O)N1C | 88 | 18.4 |  | 
6 | CC(C)[C@H]1COC[C@@H](NC(=O)c2nc3ccccc3cc2O)C(=O)N2CCCC[C@H]2C(=O)NCC(=O)N(C)CC(=O)N(C)[C@@H](C(C)C)COC[C@@H](NC(=O)c2nc3ccccc3cc2O)C(=O)N2CCCC[C@H]2C(=O)NCC(=O)N(C)CC(=O)N1C | 91 | 18.2 |  | 
7 | CN1CC(=O)N2CCCC[C@H]2C(=O)NC[C@@H](NC(=O)c2nc3ccccc3cc2O)C(=O)N2CCCC[C@H]2C(=O)NCC(=O)N(C)CC(=O)N2CCCC[C@H]2C(=O)NC[C@@H](NC(=O)c2nc3ccccc3cc2O)C(=O)N2CCCC[C@H]2C(=O)NCC1=O | 97 | 15.7 | 500 | 
8 | CC(C)[C@H]1C(=O)NC[C@@H](NC(=O)c2nc3ccccc3cc2O)C(=O)N2CCCC[C@H]2C(=O)NCC(=O)N(C)CC(=O)N2CCCCC[C@H]2C(=O)NC[C@@H](NC(=O)c2nc3ccccc3cc2O)C(=O)N2CCCC[C@H]2C(=O)NCC(=O)N(C)CC(=O)N1C | 88 | 16.4 | 700 | 
9 | CC(C)[C@H]1COC[C@@H](NC(=O)c2nc3ccccc3cc2O)C(=O)N2CCCC[C@H]2C(=O)NCC(=O)N(C)CC(=O)N(C)[C@@H](C(C)C)C(=O)OC[C@@H](NC(=O)c2nc3ccccc3cc2O)C(=O)N2CCCC[C@H]2C(=O)NCC(=O)N(C)CC(=O)N1C | 96 | 20.2 | 300 | 
10 | CC(C)[C@H]1C(=O)OC[C@@H](NC(=O)c2nc3ccccc3cc2O)C(=O)N2CCCC[C@H]2C(=O)NCC(=O)N(C)CC(=O)N(C)[C@@H](C(C)C)C(=O)OC[C@@H](NC(=O)c2nc3ccccc3cc2O)C(=O)N2CCCC[C@H]2C(=O)NCC(=O)N(C)CC(=O)N1C | 102 | 21.6 | 360 | remaining at 24 h [5]: < 5%; half-life at 1 µM [6]: 5.5 h; IC50 [7]: 1.4 nM; IC50 [8]: 1 nM; IC50 [9]: 1.6 nM
11 | CC[C@H](C)[C@H]1C(=O)NC[C@@H](NC(=O)c2nc3ccccc3cc2O)C(=O)N2CCCC[C@H]2C(=O)NCC(=O)N(C)CC(=O)N(C)[C@@H](C(C)C)C(=O)NC[C@@H](NC(=O)c2nc3ccccc3cc2O)C(=O)N2CCCC[C@H]2C(=O)NCC(=O)N(C)CC(=O)N1C | 89 | 18 | 200 | 
12 | CC(C)[C@H]1C(=O)N[C@H](C)[C@@H](NC(=O)c2nc3ccccc3cc2O)C(=O)N2CCCC[C@H]2C(=O)NCC(=O)N(C)CC(=O)N(C)[C@@H](C(C)C)C(=O)N[C@H](C)[C@@H](NC(=O)c2nc3ccccc3cc2O)C(=O)N2CCCC[C@H]2C(=O)NCC(=O)N(C)CC(=O)N1C | 87 | 17.6 |  | 
13 | CC(C)[C@H]1C(=O)NC[C@@H](NC(=O)c2nc3ccccc3cc2O)C(=O)N2CCCC[C@H]2C(=O)NCC(=O)N(C)CC(=O)N(C)[C@@H](C(C)C)C(=O)NC[C@@H](NC(=O)c2nc3ccccc3cc2O)C(=O)N2CCCC[C@H]2C(=O)NCC(=O)N(C)CC(=O)N1C | 88 | 17.1 | 3300 | Stability [10]: Stable; IC50 [7]: 46 nM; IC50 [8]: 18 nM; IC50 [9]: 39 nM
14 | CC(C)[C@H]1C(=O)O[C@H](C)[C@@H](NC(=O)c2nc3ccccc3cc2O)C(=O)N2CCCC[C@H]2C(=O)NCC(=O)N(C)CC(=O)N(C)[C@@H](C(C)C)C(=O)O[C@H](C)[C@@H](NC(=O)c2nc3ccccc3cc2O)C(=O)N2CCCC[C@H]2C(=O)NCC(=O)N(C)CC(=O)N1C | 85 | 21.6 |  | 
15 | CC(C)[C@H]1COC[C@@H](NC(=O)c2nc3ccccc3cc2O)C(=O)N2CCCC[C@H]2C(=O)NCC(=O)N(C)CC(=O)N(C)[C@@H](C(C)C)C(=O)NC[C@@H](NC(=O)c2nc3ccccc3cc2O)C(=O)N2CCCC[C@H]2C(=O)NCC(=O)N(C)CC(=O)N1C | 92 | 18.4 | 300 | Stability [10]: Stable; IC50 [7]: 5.4 nM; IC50 [8]: 2.9 nM; IC50 [9]: 6.4 nM
16 | CC(C)[C@H]1C(=O)NC[C@@H](NC(=O)c2nc3ccccc3cc2O)C(=O)N2CCCC[C@H]2C(=O)NCC(=O)N(C)CC(=O)N2CCC[C@H]2C(=O)NC[C@@H](NC(=O)c2nc3ccccc3cc2O)C(=O)N2CCCC[C@H]2C(=O)NCC(=O)N(C)CC(=O)N1C | 88 | 15 | 1100 | 
17 | CC(C)[C@H]1C(=O)NC[C@@H](NC(=O)c2nc3ccccc3cc2O)C(=O)N2CCCC[C@H]2C(=O)NCCOCC(=O)N(C)[C@@H](C(C)C)C(=O)NC[C@@H](NC(=O)c2nc3ccccc3cc2O)C(=O)N2CCCC[C@H]2C(=O)NCCOCC(=O)N1C | 68 | 16 |  | 
18 | CC(C)[C@H]1C(=O)NC[C@@H](NC(=O)c2nc3ccccc3cc2O)C(=O)N2CCCC[C@H]2C(=O)NCC(=O)N(C)CC(=O)N(C)[C@@H]([C@@H](C)O)C(=O)NC[C@@H](NC(=O)c2nc3ccccc3cc2O)C(=O)N2CCCC[C@H]2C(=O)NCC(=O)N(C)CC(=O)N1C | 86 | 10.6 |  | 
19 | CC(C)[C@H]1C(=O)NC[C@@H](NC(=O)c2nc3ccccc3cc2O)C(=O)N2CCCC[C@H]2C(=O)NCC(=O)N(C)CC(=O)N(C)[C@@H](C(C)C)C(=O)OC[C@@H](NC(=O)c2nc3ccccc3cc2O)C(=O)N2CCCC[C@H]2C(=O)NCC(=O)N(C)CC(=O)N1C | 97 | 19.6 | 80 | half-life at 1 µM [6]: 12 h; IC50 [7]: 0.6 nM; IC50 [8]: 0.6 nM; IC50 [9]: 1.2 nM
20 | CC(C)[C@H]1C(=O)NC[C@@H](NC(=O)c2nc3ccccc3cc2O)C(=O)N2CCCC[C@H]2C(=O)NCC(=O)NCC(=O)N(C)[C@@H](C(C)C)C(=O)NC[C@@H](NC(=O)c2nc3ccccc3cc2O)C(=O)N2CCCC[C@H]2C(=O)NCC(=O)NCC(=O)N1C (I: {Quinaldoyl(3-OH)}-[dDap][Pip]GG[NMeV] / II: {Quinaldoyl(3-OH)}-[dDap][Pip]GG[NMeV]; amide I:1-II:C, I:C-II:1) |  | 15.1 |  | Activity [4]: inactive
21 | CC(C)[C@H]1C(=O)NC[C@@H](NC(=O)c2nc3ccccc3cc2O)C(=O)N2CCCC[C@H]2C(=O)NCC(=O)N(C)CC(=O)N2CCCC[C@H]2C(=O)NC[C@@H](NC(=O)c2nc3ccccc3cc2O)C(=O)N2CCCC[C@H]2C(=O)NCC(=O)N(C)CC(=O)N1C | 92 | 16.4 | 570 | 
22 | CC[C@H](C)[C@H]1C(=O)NC[C@@H](NC(=O)c2nc3ccccc3cc2O)C(=O)N2CCCC[C@H]2C(=O)NCC(=O)N(C)CC(=O)N(C)[C@@H]([C@@H](C)CC)C(=O)NC[C@@H](NC(=O)c2nc3ccccc3cc2O)C(=O)N2CCCC[C@H]2C(=O)NCC(=O)N(C)CC(=O)N1C | 91 | 18.8 | 400 | 
23 | CCOC(=O)[C@H](CCc1ccccc1)N[C@@H](C)C(=O)N1CCC[C@H]1C(=O)O [ENALAPRIL] |  |  |  | half-life at 1 µM [6]: 2.83 h
24 | O=C(N[C@@H]1CNC(=O)[C@@H]2CCCCN2C(=O)COCCNC(=O)[C@@H]2CCCCN2C(=O)[C@H](NC(=O)c2nc3ccccc3cc2O)CNC(=O)[C@@H]2CCCCN2C(=O)COCCNC(=O)[C@@H]2CCCCN2C1=O)c1nc2ccccc2cc1O | 68 | 16.1 |  | 
25 | CC(C)[C@H]1C(=O)NC[C@@H](NC(=O)c2nc3ccccc3cc2O)C(=O)N2CCCC[C@H]2C(=O)NCC(=O)N(C)CC(=O)N(C)[C@@H](C2CCCCC2)C(=O)NC[C@@H](NC(=O)c2nc3ccccc3cc2O)C(=O)N2CCCC[C@H]2C(=O)NCC(=O)N(C)CC(=O)N1C | 86 | 18.9 | 400 | 
